# Data reported in patent publication US20240261301A1, “COMPOSITION COMPRISING INOTODIOL FOR PREVENTION OR TREATMENT OF MUSCULAR DISEASE” (ANIMUSCURE INC., priority 2021, published 2024).
# Columns and labels:
# C2C12 cells = test: Myoblast differentiation of C2C12 cells (MHC immunostaining and immunoblot); type: cell-based, mouse
# Procedure: The C2C12 cells were cultured in a general cell culture medium and a differentiation medium, respectively. DMEM supplemented with 15% fetal bovine serum was used as the normal cell culture medium (i.e., a growth medium (GM)), and DMEM supplemented with 2% horse serum was used as the differentiation medium (DM).
# The C2C12 cells whose differentiation was induced in Example 1 were washed with 1× PBS, and then fixed with 3.7% paraformaldehyde at room temperature. Thereafter, a permeabilization buffer was added thereto, and reacted at room temperature. Unspecific antibody binding was inhibited by reacting with PBST (a blocking buffer) containing 3% BSA and PBS containing 0.1% Tween 20. A primary antibody against a myosin heavy chain (MHC) was diluted 1:500 in a blocking buffer, added, and reacted at room temperature. A secondary antibody diluted 1:5000 in a blocking buffer was added, and reacted at room temperature.
# The C2C12 cells whose differentiation was induced in Example 1 were collected, lysed by adding a lysis buffer (20 mM Tris-HCl, pH 8.0, 150 mM NaCl, 1% Triton X, a proteinase inhibitor), and then the cell lysis sample was quantified. Thereafter, the same amount of protein was subjected to SDS-PAGE electrophoresis, and transferred to a PVDF membrane. […]
# PGC-1α = PGC-1α mRNA expression by qRT-PCR in C2C12 cells; type: cell-based, mouse; conditions: differentiating C2C12, qRT-PCR, normalized to 18s rRNA, vs control
# Procedure: (§1) Cells were seeded into the cell culture medium (GM), and cultured for 24 hours. Thereafter, the differentiation medium (DM) was treated with DMSO and inotodiol (0.1, 0.5, 1.0, and 10 μM) at different concentrations, and differentiation was induced for 2 to 3 days.
# The C2C12 cells whose differentiation was induced in Example 1 were lysed using an Easy-spin Total RNA Extraction kit, and chloroform was added thereto. Then, the C2C12 cells were centrifuged. After the supernatant was separated, the same volume of isopropanol was added and bound to the cells. After centrifugation, the cells were washed with 70% EtOH mixed with DEPC water, and the concentration of RNA was quantified by adding 20 to 50 μL of a DEPC solution. RNA was reverse-transcribed using a PrimeScript cDNA synthesis kit to synthesize cDNA. Then, the gene expression was analyzed by qRT-PCR in a real-time PCR system using SYBR Premix EX Taq. Fold changes in gene expression were normalized against the expression of ribosomal gene 18s rRNA.
# high-fat diet mice = test: Exercise capacity in high-fat diet mouse model (treadmill, grip test); type: in vivo; conditions: high-fat diet-fed mice
# Procedure: When inotodiol was administered to high-fat diet mice, the effects on muscle strength and exercise performance ability were determined. After inotodiol was administered to a high-fat diet-fed mouse model, the exercise duration and movement distance were measured through a treadmill experiment. […] As a result of the grip test, it was also confirmed that the high-fat diet mouse model had lower muscle strength than the mean muscle strength.
# ATPSA, MTCO1, and NDUF88 = test: Mitochondrial activity markers (T-OxPHOS immunoblotting) in C2C12 myoblasts; type: cell-based, mouse; conditions: inotodiol at each concentration
# Procedure: as §1
# To induce the differentiation of C2C12 myoblasts in the same manner as in Example 1 and check mitochondrial activity, the expression characteristics of a T-OxPHOS antibody mixed with ATPSA, MTCO1, and NDUF88 were confirmed through immunoblotting. For each of the proteins included in the T-OxPHOS antibody, ATPSA is a constituent protein of ATP synthase that contributes to the ATP synthesis in mitochondria, MTCO1 is associated with the oxidase activity of cytochrome-c, which is a component of the electron transport system in the inner membrane of mitochondria, and NDUF 88 encodes a subunit of NADH:ubiquinone oxidoreductase (Complex 1), which is the first enzyme complex in the mitochondrial electron transport system.
# [1] = system: mouse model in which myoatrophy is induced by DEX; test: Myotube atrophy in myoatrophy-induced (DEX) mouse model; type: in vivo; conditions: DEX (dexamethasone 20 mg/kg) model
# Procedure: Experimental animals were grouped into 10 animals having a similar body weight, and dexamethasone was administered at a dose of 20 mg/kg to one group to induce […].
# For the myoatrophy mouse model of Example 3, the effects of alleviating and recovering myotube atrophy were determined when inotodiol was administered.
# [2] = system: mouse model in which muscle damage is induced by CTX; conditions: CTX mice
# Procedure: Ten 5-month-old C57BL/6 male mice were used as experimental animals.
# However, each of the weights of the hindlimb muscle tissues, such as the tibialis anterior muscle (TA), extensor digitorum longus muscle (EDL), soleus muscle (Sol), and gastrocnemius muscle (Gas), of the experimental animals was measured.
# Hematoxylin & eosin staining (H&E staining) was performed using the TA muscle isolated from the tissue of each of the experimental animals. Frozen sections fixed with 4% paraformaldehyde were stained with hematoxylin and stained with eosin for contrast staining, mounted, and observed under an optical microscope.
# The relative mRNA expression levels were compared for each muscle type of Myh7 (MHCI), Myh2 (MHCIIa), Myh4 (MHCIIb), and Myh1 (MHCIIx).
# normal mice = test: Long-term (2 months) inotodiol administration to normal mice; type: in vivo, mouse
# Procedure: For normal mice in which the muscle damage or muscle atrophy was not induced, an experiment was conducted to determine whether there was an effect of increasing muscle mass and muscle strength when inotodiol was administered. For the mice to which inotodiol was administered for 2 months, an experiment was conducted to measure a change in muscle mass and muscle strength of hindlimb muscles after the administration of inotodiol (a grip test).
# muscle stem cells = test: Muscle stem cell proliferation (BrdU analysis) after CTX muscle damage; type: in vivo, mouse
# Procedure: To induce muscle damage, CTX was injected into the mice to which inotodiol was administered once a day for 7 days. Then, it was determined through BrdU analysis whether or not the proliferation of muscle stem cells was enhanced (FIG. 10).
# muscle fibrosis = test: Muscle fibrosis in CTX muscle damage mouse model; type: in vivo; conditions: then inotodiol
# PGC-1α promoter = test: PGC-1α reporter (luciferase) assay; type: cell-based, mouse
# Procedure: Immediately after cells were seeded at a density of 1×10^4 cells/well in a 96-well culture plate, the cells were transfected by treating the cells with PGC-1α (DNA) and a plasmid at a ratio of [150 ng/10 μL]+[0.3 μL/10 μL] per well. […] After 24 hours of drug treatment, the cells were lysed in 30 μL of a passive lysis buffer (Promega) per well, and the dissolved cell solution was transferred to a plate for luminometer reading. Then, an equal amount of luciferin, which is a substrate of luciferase, was subjected to an enzymatic reaction to determine the degree of luminescence. The measured values were standardized for each well and plate, and expressed as a relative ratio using the measured values in the wells treated with DMSO, which is a solvent of the compound, as the control. The expression level of luciferase in the PGC-1α reporter cell line depends on the stimulation received by a PGC-1α promoter. That is, if the compound is a PGC-1α expression inducer, it stimulates the PGC-1a promoter to increase the expression of luciferase, and if the compound is a PGC-1α expression inhibitor, luciferase expression decreases.
# [3] = 300 μg/kg oral, 21 days after CTX
# [4] = 2 months administration, vs control
# [5] = inotodiol once a day for 7 days, then CTX
compound,measurement,setting,value
CC(C)=CC[C@@H](O)[C@@H](C)[C@H]1CC[C@@]2(C)C3=C(CC[C@]12C)[C@@]1(C)CC[C@H](O)C(C)(C)C1CC3 (some centres unmarked) [inotodiol],formation of multinucleated myotubes,"C2C12 cells; C2C12, inotodiol 0.1, 0.5, 1.0, 10 μM, immunostaining on day 2 of differentiation",increased in a concentration-dependent manner
same,expression level of MHC (differentiation marker),"C2C12 cells; C2C12, inotodiol at different concentrations, immunoblot, vs DMSO-treated control",increased in a concentration-dependent manner
same,mRNA expression for PGC-1α,PGC-1α,significantly increased compared to the control
same,"exercise capacity (exercise duration and movement distance, treadmill)",high-fat diet mice,recovered exercise capacity to the level of the normal control
same,muscle strength (grip test),high-fat diet mice,muscle strength was improved
same,"expression level of mitochondrial proteins (ATPSA, MTCO1, NDUF88)","ATPSA, MTCO1, and NDUF88",increased in proportion to the concentration of inotodiol
same,cross-sectional area of myotubes,[1],restored to the same level as that of the normal group
same,size of muscles and muscle fibers,[1],increased
same,"increase in muscle mass, extensor digitorum longus muscle (EDL), vs control",[2]; [3],18.9%
same,"increase in muscle mass, gastrocnemius muscle (Gas), vs control",[2]; [3],9.5%
same,"increase in muscle mass, soleus muscle (Sol), vs control",[2]; [3],5.2%
same,"increase in muscle mass, tibialis anterior muscle (TA), vs control",[2]; [3],16.0%
same,expression of Myh2 (MHCIIa),[2]; 21 days after muscle damage,tended to greatly increase
same,"relative mRNA expression levels of muscle fiber types Myh7, Myh2, Myh4, Myh1",[2]; 21 days after muscle damage,no significant difference
same,blood glucose,"[2]; day 21 after induction of muscle damage, vs control",blood glucose-lowering effect was confirmed
same,increase in grip strength vs control,"[2]; day 21 after muscle damage, grip strength test",approximately 6.8%
same,change in body weight,"[2]; inotodiol 300 μg/kg oral, 21 days after CTX",no change in body weight was observed
same,increase in muscle fiber cross-sectional area (CSA) of TA muscle vs control,[2]; laminin staining,89.4%
same,muscle regeneration (H&E staining of TA muscle),[2]; vs control,significant muscle regeneration effect
same,hindlimb muscle mass,normal mice; [4],increased
same,muscle strength (grip test),normal mice; [4],also increased
same,weight of fat relative to weight gain,normal mice; long-term administration,increased relatively less
same,weight-to-muscle ratio,normal mice; long-term administration,higher than that of the non-administered group
same,expression levels of PGC-1α and mitochondrial-related genes in muscle,"normal mice; long-term administration, vs control",increased compared to the control
same,expression of genes involved in muscle growth,muscle stem cells; CTX muscle damage,effect of enhancing the expression of genes involved in muscle growth was confirmed
same,relative mRNA expression levels of genes involved in the cell cycle,muscle stem cells; CTX muscle damage,increased
same,expression level of BrdU in muscle tissues,muscle stem cells; [5],increased
same,expression levels of Pax7 and Ki67 and expression ratio of Ki67 to Pax7,muscle stem cells; [5],increased
same,area of the muscle tissue in which fibrosis progressed,muscle fibrosis,reduced
same,muscle fibrosis in muscle tissue,muscle fibrosis,fibrosis was ameliorated
same,luciferase activity for PGC-1α,"PGC-1α promoter; inotodiol 0.1, 0.5, 1.0 μM, 24 h, relative to DMSO",increased in an inotodiol concentration-dependent manner
same,luciferase activity for PGC-1α compared with positive control,PGC-1α promoter; vs 0.5 mM AICAR positive control,higher than that of 0.5 mM AICAR
